PubChem BioAssay (NCI)
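Step 1: Grow cells in 96-well plates. Step 2: Expose to compound for 48 hours at 5 concentrations. Step 3: Interpolate endpoints linearly; if unreached, use highest concentration. Here, GI50 denotes the concentration required for 50% inhibition of growth. TGI: concentration producing complete growth inhibition.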

Experiments:
Experiment in all cases: NCI tumour cell line growth inhibition, 48 h
BT-549 breast = tested on: BT-549 breast
DU-145 prostate = tested on: DU-145 prostate
HOP-92 NSCLC = tested on: HOP-92 NSCLC
LOX IMVI melanoma = tested on: LOX IMVI melanoma
M14 melanoma = tested on: M14 melanoma
MALME-3M melanoma = tested on: MALME-3M melanoma
NCI-H23 lung = tested on: NCI-H23 lung
SK-MEL-2 melanoma = tested on: SK-MEL-2 melanoma
SN12C renal = tested on: SN12C renal
SNB-75 CNS = tested on: SNB-75 CNS

Structure (SMILES)	TGI (BT-549 breast) [µM]	TGI (DU-145 prostate) [µM]	TGI (HOP-92 NSCLC) [µM]	TGI (LOX IMVI melanoma) [µM]	TGI (M14 melanoma) [µM]	TGI (MALME-3M melanoma) [µM]	TGI (NCI-H23 lung) [µM]	TGI (SK-MEL-2 melanoma) [µM]	TGI (SN12C renal) [µM]	TGI (SNB-75 CNS) [µM]	GI50 (BT-549 breast) [µM]	GI50 (DU-145 prostate) [µM]	GI50 (HOP-92 NSCLC) [µM]	GI50 (LOX IMVI melanoma) [µM]	GI50 (M14 melanoma) [µM]	GI50 (MALME-3M melanoma) [µM]	GI50 (NCI-H23 lung) [µM]	GI50 (SK-MEL-2 melanoma) [µM]	GI50 (SN12C renal) [µM]	GI50 (SNB-75 CNS) [µM]
O=C(c1ccc(Cl)cc1)C1OC12C(=O)Nc1ccccc12 (stereo not drawn)	31.4	33.8	30	4.67	19	18.8	32.9	22.3	19.3	32										
COc1ccc(CCc2cc(OC)c(OC)c(OC)c2)cc1	> 100	5.62	62.7	39.5	16	39.1	26.9	24.2	> 91.2	> 100										
CC(NC(=O)c1ccccc1)(C(=O)O)C(=O)O	> 100	> 100	> 100	> 100	> 100	> 100	> 100	> 100	> 100	> 100										
O=c1c2ccccc2oc2ccc(OCCCCCCN3CCCCCC3)cc12	5.3	19	20.7	3.54	3.69	3.68	11.7	9.75	16.2	14.1	1.7	5.89	4.29	1.85	1.88	1.93	3.1	3.05	4.07	3.11
Oc1[nH]c2cc(Cl)ccc2c1/C=c1/ccc2c(c1)N=C(c1cc(F)cc(F)c1)N=2	10	4.45	8.16	15.2	3.69	27.4	13	7.03	16.5	6.07	2.1	1.98	0.741	2.22	1.52	6.06	2.47	2.08	3.89	1.6
CC(=O)Oc1ccc(/C=N/NC(N)=S)nc1	68.9	8.38	> 100	> 100	8.72	43.5	> 100	> 100	> 100	> 100	3.4	2.36	12.9	3.54	2.72	4.96	2.39	77	4.06	11.7
CC(=O)N(Cc1ccccc1)c1ccccc1I(=O)=O	> 100	> 100	67.5	35.6		> 100	> 100	> 100	> 100	> 100	> 100	29.6	13.3	17.5		19.3	37.8	63.6	> 100	50.9
COC(=O)c1c(C)nc(C)c(NO)c1-c1ccccc1C(F)(F)F	30.8	> 100	29	> 100	39.5	32.8	84.3	> 100	62.4											
S=C(NCc1ccccc1)N/N=C/c1ccccn1	> 100	> 100	52.7	21.5	9.32	> 100	> 100	> 100	> 100	47.8										
Nc1ccc2c(c1)c(N)nn2C(=O)Nc1ccc(Cc2ccccc2)cc1	33.5	24	24.4	16	17.8	89.8	39.5	48.5	30.9	31.5	14.6	10.9	10.4	3.38	4.59	18	16.9	26.1	13.4	17.4
Cc1nc(N)nc2ccccc12	> 100	> 100	> 100	> 100	> 100	> 100	> 100	> 100	> 100	> 100										
CO[C@@]12[C@@H]3NC3CN1C1=C(C(=O)C(N)=C(C)C1=O)[C@@H]2COC(N)=O (stereo partly drawn)	6.74	11.9	5.73	2.06	1.82	2.21	1.46	4.41	> 40.9		1.3		1.44			0.511		1.91		
CCOC(=O)C(=O)C(=O)NN(C)C1=NCCN1	> 100	> 100	> 100	> 100	> 100	> 100	> 100	> 100	> 100	> 100										
Cc1cc([N+](=O)[O-])c(C)c(Br)c1C	> 100	> 100	> 100		> 100	> 100	> 100	> 100	> 100	> 100										
CC1OC(OC2CCC3(C=O)C4CCC5(C)C(C6=CC(=O)OC6)CCC5(O)C4CCC3(O)C2)C(O)C(O)C1O (stereo not drawn)	4.44e-05	1.75e-05	0.000102	6.73e-05		8.23e-05	4.11e-05	0.000326	3.74e-05	0.36										
